Patent publication US20260022142A1, “MACROCYCLIC IMMUNOMODULATORS” (Bristol-Myers Squibb Company, priority 2022, published 2026)
Bridge positions count the residues as written; N and C are the ends. Square brackets hold non-standard residues; d marks the D form. Peptide text beside a SMILES is read from it. * marks the point of attachment. ξ: configuration not given here. Bip = N[C@@H](Cc1ccc(-c2ccccc2)cc1)C(=O)O; Phe(3-Me) = Cc1cccc(C[C@H](N)C(=O)O)c1; hArg = N=C(N)NCCCC[C@H](N)C(=O)O; Cha = N[C@@H](CC1CCCCC1)C(=O)O; Thr(3ξ) = CC(O)[C@H](N)C(=O)O; Carboxymethyl = O=C(O)C*; Orn = NCCC[C@H](N)C(=O)O; Aun = NCCCCCCCCCCC(=O)O; Dab = NCC[C@H](N)C(=O)O; Dap = NC[C@H](N)C(=O)O; AEEA = NCCOCCOCC(=O)O

Each molecule was assayed against T1, PD-1/PD-L1 interaction (PE-labeled human PD-L1-Ig binding to Jurkat cell line over-expressing human PD-1) (Homo sapiens, UniProt Q15116) (assay: Jurkat-PD-1 Cell Binding High-Content Screening Assay (CBA)). Settings: Jurkat cell line over-expressing human PD-1; PE-labeled PD-L1-Ig 20 nM final; read-out: Jurkat hPD1-PDL1 IC50.
T1 construct: expressed in transfected cells; host or cells: Jurkat
Format: cell-based
Method in brief: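 Read-out is high-content imaging of cell-bound phycoerythrin-tagged PD-L1-Ig on fixed, Hoechst-counterstained Jurkat cells that over-express human PD-1. Compound exposure lasts 2 h at 37° C before the labeled ligand (20 nM final) is added for a further hour.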

T1 sequence (Q15116 25-288): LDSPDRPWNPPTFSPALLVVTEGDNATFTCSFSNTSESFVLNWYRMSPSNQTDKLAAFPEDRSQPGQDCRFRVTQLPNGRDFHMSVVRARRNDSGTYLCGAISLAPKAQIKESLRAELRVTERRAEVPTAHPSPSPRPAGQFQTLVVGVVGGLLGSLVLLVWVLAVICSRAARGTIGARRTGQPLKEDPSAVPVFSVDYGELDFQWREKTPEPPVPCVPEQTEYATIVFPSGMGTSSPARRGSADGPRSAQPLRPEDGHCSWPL

Structure (SMILES) | IC50
CC(C)C[C@H]1NC(=O)[C@H](CCCN)NC(=O)[C@H](C(C)C)NC(=O)[C@H](Cc2ccc(-c3ccccc3)cc2)NC(=O)[C@H](C(C)C)NC(=O)[C@H](Cc2c[nH]c3ccccc23)NC(=O)[C@H](CC(=O)O)NC(=O)[C@H](Cc2c[nH]cn2)NC(=O)[C@H](CCCCNC(=N)N)NC(=O)CSC[C@@H](C(=O)N[C@@H](CCN)C(=O)NCCCCCCCCCCC(=O)O)NC(=O)[C@H](CCCN)NC(=O)[C@H](C(C)C)NC(=O)[C@H](CC2CCCCC2)NC(=O)[C@H](CCN)NC1=O [Compound 3263] ({CH2CO}-[hArg]HDWV[Bip]V[Orn][dL][Dab][Cha]V[Orn]C[Dab][Aun]-OH; thioether N-14) | 55.3 nM
Cc1cccc(C[C@@H]2NC(=O)[C@H](CC(=O)O)NC(=O)[C@H](Cc3c[nH]cn3)NC(=O)[C@H](CCCCNC(=N)N)NC(=O)CSC[C@@H](C(=O)NCCOCCOCC(=O)NCCCCCCCCCCC(=O)O)NC(=O)[C@H](CCCN)NC(=O)[C@H](C(C)C)NC(=O)[C@H](CC3CCCCC3)NC(=O)[C@H](CCN)NC(=O)[C@@H](CC(C)C)NC(=O)[C@H](CCCN)NC(=O)[C@H](C(C)C)NC(=O)[C@H](Cc3ccc(-c4ccccc4)cc3)NC(=O)[C@H](C(C)C)NC2=O)c1 [Compound 3264] ({CH2CO}-[hArg]HD[Phe(3-Me)]V[Bip]V[Orn][dL][Dab][Cha]V[Orn]C[AEEA][Aun]-OH; thioether N-14) | 12.6 nM
CC(C)C[C@H]1NC(=O)[C@H](CCN)NC(=O)[C@H](C(C)C)NC(=O)[C@H](Cc2ccc(-c3ccccc3)cc2)NC(=O)[C@H](C(C)C)NC(=O)[C@H](Cc2c[nH]c3ccccc23)NC(=O)[C@H](CC(=O)O)NC(=O)[C@H](Cc2ccc(OCC(=O)O)cc2)NC(=O)[C@H](CCCCNC(=N)N)NC(=O)CSC[C@@H](C(=O)NCCOCCOCC(=O)NCCCCCCCCCCC(=O)O)NC(=O)[C@H](CCCN)NC(=O)[C@H](C(C)C)NC(=O)[C@H](CC2CCCCC2)NC(=O)[C@H](CCN)NC1=O [Compound 3265] ({CH2CO}-[hArg]Y(Carboxymethyl)DWV[Bip]V[Dab][dL][Dab][Cha]V[Orn]C[AEEA][Aun]-OH; thioether N-14) | 7.2 nM
CC(C)C[C@H]1NC(=O)[C@H](CN)NC(=O)[C@H](C(C)C)NC(=O)[C@H](Cc2ccc(-c3ccccc3)cc2)NC(=O)[C@H](C(C)C)NC(=O)[C@H](Cc2c[nH]c3ccccc23)NC(=O)[C@H](CC(=O)O)NC(=O)[C@H](Cc2ccc(OCC(=O)O)cc2)NC(=O)[C@H](CCCCNC(=N)N)NC(=O)CSC[C@@H](C(=O)NCCOCCOCC(=O)NCCCCCCCCCCC(=O)O)NC(=O)[C@H](CCCCN)NC(=O)[C@H](C(C)C)NC(=O)[C@H](CC2CCCCC2)NC(=O)[C@H](CCN)NC1=O [Compound 3266] ({CH2CO}-[hArg]Y(Carboxymethyl)DWV[Bip]V[Dap][dL][Dab][Cha]VKC[AEEA][Aun]-OH; thioether N-14) | 9.2 nM
CC(C)C[C@H]1NC(=O)[C@H](CCCN)NC(=O)[C@H](C(C)C)NC(=O)[C@H](Cc2ccc(-c3ccccc3)cc2)NC(=O)[C@H](C(C)C)NC(=O)[C@H](Cc2c[nH]c3ccccc23)NC(=O)[C@H](CC(=O)O)NC(=O)[C@H](Cc2ccc(OCC(=O)O)cc2)NC(=O)[C@H](CCCCNC(=N)N)NC(=O)CSC[C@@H](C(=O)N[C@@H](CCN)C(=O)NCCCCCCCCCCC(=O)O)NC(=O)[C@H](C(C)O)NC(=O)[C@H](C(C)C)NC(=O)[C@H](CC2CCCCC2)NC(=O)[C@H](CCN)NC1=O (stereo partly drawn) [Compound 3267] ({CH2CO}-[hArg]Y(Carboxymethyl)DWV[Bip]V[Orn][dL][Dab][Cha]V[Thr(3ξ)]C[Dab][Aun]-OH; thioether N-14) | 16.3 nM
